The values that follow come from ChEMBL document CHEMBL5465560, “Selectivity Literature for EUbOPEN Chemogenomic Library” (2024).

The target in assay [1] is Maternal embryonic leucine zipper kinase (Homo sapiens) (UniProt Q14680). As to the kind of experiment: Selectivity interaction (KinomeScan (DiscoverX)) EUB0000607a MELK. The conditions noted are these: at 10 µM.
Assay [2] has as its target T1, TGF-beta receptor type-1 (Homo sapiens) (UniProt P36897).
T1 sequence (whole entry): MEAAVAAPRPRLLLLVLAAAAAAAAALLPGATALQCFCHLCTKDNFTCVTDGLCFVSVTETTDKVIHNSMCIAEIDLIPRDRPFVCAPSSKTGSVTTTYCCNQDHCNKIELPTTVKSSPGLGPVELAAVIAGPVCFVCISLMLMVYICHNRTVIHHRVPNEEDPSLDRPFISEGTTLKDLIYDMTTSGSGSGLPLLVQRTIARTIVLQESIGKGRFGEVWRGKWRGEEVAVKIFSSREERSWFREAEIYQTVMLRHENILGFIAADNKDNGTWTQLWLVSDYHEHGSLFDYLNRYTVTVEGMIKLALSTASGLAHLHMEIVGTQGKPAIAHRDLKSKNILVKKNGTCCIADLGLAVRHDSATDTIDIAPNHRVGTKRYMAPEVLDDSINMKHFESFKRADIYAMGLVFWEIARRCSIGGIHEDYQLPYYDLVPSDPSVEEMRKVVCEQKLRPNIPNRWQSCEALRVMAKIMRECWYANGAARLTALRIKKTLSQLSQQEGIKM
To be noted: at 10 µM.

Assay [3] has as its target T2, Ephrin type-A receptor 6 (Homo sapiens) (UniProt Q9UF33).
T2 sequence (whole entry): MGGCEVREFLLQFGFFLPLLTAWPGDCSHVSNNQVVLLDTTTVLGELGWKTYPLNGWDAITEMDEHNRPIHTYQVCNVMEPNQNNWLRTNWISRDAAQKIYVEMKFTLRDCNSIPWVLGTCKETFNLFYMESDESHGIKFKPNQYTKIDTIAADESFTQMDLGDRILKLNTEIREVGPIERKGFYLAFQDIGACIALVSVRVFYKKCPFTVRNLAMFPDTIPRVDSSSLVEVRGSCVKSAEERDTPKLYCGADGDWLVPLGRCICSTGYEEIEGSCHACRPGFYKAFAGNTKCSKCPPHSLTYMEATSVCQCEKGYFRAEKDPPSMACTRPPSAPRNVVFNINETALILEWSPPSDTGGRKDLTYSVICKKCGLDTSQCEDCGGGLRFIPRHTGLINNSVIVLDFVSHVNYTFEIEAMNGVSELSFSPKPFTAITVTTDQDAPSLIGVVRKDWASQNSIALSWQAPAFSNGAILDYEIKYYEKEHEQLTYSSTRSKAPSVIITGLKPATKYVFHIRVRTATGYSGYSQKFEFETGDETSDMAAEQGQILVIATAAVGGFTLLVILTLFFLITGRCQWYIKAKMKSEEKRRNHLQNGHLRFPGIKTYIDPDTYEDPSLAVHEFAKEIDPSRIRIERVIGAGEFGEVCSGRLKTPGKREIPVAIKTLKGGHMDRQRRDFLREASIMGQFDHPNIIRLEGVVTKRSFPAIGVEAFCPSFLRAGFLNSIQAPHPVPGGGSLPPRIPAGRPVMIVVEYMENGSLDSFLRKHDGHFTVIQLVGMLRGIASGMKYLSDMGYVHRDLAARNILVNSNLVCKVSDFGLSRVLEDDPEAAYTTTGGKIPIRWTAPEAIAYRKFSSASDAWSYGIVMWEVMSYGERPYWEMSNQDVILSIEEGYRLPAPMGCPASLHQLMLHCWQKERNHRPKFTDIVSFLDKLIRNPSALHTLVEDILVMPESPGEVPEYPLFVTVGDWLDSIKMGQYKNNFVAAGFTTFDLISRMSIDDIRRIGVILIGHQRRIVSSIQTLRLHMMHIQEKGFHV
As to the kind of experiment: Selectivity interaction (KinomeScan (DiscoverX)) EUB0000666a EPHA6. The conditions noted are these: at 10 µM.

The target in assay [4] is T3, Tyrosine-protein kinase Mer (Homo sapiens) (UniProt Q12866).
T3 sequence (whole entry): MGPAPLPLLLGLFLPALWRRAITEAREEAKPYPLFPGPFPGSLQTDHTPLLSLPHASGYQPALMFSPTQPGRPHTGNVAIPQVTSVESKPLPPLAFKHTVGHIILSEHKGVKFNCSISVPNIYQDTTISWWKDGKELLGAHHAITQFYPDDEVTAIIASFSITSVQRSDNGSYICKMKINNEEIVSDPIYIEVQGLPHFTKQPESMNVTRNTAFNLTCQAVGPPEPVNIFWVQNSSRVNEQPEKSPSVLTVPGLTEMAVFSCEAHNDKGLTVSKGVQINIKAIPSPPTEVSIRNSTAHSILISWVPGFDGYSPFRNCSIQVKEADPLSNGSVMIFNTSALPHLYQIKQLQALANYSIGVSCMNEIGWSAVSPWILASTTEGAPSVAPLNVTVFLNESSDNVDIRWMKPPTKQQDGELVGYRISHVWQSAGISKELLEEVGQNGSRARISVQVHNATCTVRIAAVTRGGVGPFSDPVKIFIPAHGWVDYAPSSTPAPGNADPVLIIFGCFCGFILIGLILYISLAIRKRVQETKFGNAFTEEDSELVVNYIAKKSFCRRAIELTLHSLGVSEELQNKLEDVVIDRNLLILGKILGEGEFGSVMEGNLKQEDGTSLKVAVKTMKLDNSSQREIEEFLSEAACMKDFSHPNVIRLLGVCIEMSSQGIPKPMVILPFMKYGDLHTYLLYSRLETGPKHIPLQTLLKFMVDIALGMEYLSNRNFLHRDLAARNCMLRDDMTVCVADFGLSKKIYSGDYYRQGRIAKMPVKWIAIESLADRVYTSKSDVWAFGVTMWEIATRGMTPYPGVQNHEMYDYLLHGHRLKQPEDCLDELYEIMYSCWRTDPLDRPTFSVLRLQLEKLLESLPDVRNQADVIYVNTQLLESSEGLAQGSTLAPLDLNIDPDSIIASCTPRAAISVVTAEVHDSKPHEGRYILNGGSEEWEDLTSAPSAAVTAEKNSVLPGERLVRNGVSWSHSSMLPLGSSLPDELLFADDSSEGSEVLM
As to the kind of experiment: Selectivity interaction (KinomeScan (DiscoverX)) EUB0000655a MERTK. The conditions noted are these: at 10 µM.

The target of assay [5] is Tyrosine-protein kinase Fes/Fps (Homo sapiens) (UniProt P07332). Put plainly: Selectivity interaction (KinomeScan (DiscoverX)) EUB0001049a FES. To be noted: at 1 µM.
Tyrosine-protein kinase Fes/Fps (Homo sapiens), sequence (P07332 whole entry): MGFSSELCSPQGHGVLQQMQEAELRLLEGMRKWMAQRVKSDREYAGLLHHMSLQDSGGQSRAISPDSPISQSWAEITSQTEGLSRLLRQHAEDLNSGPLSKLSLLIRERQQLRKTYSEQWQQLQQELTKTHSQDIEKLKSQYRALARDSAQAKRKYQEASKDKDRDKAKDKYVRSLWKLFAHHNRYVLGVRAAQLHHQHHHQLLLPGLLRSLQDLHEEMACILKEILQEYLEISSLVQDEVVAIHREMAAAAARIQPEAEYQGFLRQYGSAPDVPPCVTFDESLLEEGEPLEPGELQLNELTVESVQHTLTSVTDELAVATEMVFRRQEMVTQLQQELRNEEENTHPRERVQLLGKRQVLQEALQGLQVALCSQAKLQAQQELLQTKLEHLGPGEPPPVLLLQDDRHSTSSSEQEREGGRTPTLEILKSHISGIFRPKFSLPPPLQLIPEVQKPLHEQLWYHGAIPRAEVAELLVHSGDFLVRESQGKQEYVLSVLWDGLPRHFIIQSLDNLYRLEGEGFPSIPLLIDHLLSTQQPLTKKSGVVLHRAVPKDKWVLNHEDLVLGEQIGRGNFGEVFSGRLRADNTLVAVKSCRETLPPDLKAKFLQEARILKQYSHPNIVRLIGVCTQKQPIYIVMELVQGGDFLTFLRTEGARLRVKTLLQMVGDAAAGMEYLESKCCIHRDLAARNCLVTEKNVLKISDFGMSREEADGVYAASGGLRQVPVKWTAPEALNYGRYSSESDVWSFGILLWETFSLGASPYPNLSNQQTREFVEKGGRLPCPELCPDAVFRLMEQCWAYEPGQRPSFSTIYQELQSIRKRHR
The target in assay [6] is Cyclin-dependent kinase 2/cyclin E (Homo sapiens) (UniProt P24864+P24941+O96020). Put plainly: Selectivity interaction (Upstate Kinase Profiler service (Millipore)) EUB0000056c CDK2. To be noted: at 1 µM. Format: protein-complex assay.

Structures are written as SMILES.

Maternal embryonic leucine zipper kinase (Homo sapiens), sequence (Q14680 whole entry, looked up): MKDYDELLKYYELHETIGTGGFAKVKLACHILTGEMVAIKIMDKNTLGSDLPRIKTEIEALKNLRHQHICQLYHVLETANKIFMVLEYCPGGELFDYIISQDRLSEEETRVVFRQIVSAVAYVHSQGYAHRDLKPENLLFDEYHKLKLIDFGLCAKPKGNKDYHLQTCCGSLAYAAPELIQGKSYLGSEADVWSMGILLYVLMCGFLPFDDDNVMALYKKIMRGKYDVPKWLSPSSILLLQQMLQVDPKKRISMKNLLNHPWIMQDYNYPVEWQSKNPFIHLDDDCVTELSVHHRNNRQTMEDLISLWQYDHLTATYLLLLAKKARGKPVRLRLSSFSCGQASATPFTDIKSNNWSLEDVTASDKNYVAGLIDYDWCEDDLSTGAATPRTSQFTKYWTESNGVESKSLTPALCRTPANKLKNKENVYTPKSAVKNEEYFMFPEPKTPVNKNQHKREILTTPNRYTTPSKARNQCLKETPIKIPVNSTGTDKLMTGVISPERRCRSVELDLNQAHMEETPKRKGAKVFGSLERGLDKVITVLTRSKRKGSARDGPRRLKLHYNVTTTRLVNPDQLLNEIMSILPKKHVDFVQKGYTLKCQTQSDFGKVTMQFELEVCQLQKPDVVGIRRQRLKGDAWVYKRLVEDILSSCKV

For `CNC(=O)Nc1ccc(-c2nc(N3CC4CCC(C3)O4)c3cnn(C4CCC5(CC4)OCCO5)c3n2)cc1`, the % of control in assay [1] turned out to be 92%. In assay [2], `Cc1cc([C@@H](C)Nc2ccccc2C(=O)O)c2nc(N3CCOCC3)cc(=O)n2c1` [AZD-6482] yielded a % of control of 100%.

As for `O=C(NOC[C@H](O)CO)c1ccc(F)c(F)c1Nc1ccc(I)cc1F`, the % of control in assay [3] turned out to be 94%. Consider `CN(C)CCOc1ccc(-c2nc(-c3ccncc3)c(-c3ccc4c(c3)CC/C4=N\O)[nH]2)cc1`, for which, in assay [4], the % of control stood at 87%.

With `COc1cc(Nc2nc(C)cc(-c3cnn4nc(OC)ccc34)n2)cc(C(F)(F)F)c1`, in assay [5], the % of control was found to be 95%. In turn, `Cc1ccc(-c2ccc3c(ccc4sc5c(c43)NC[C@@H](C)NC5=O)n2)cn1` returned a % of inhibition in assay [6] of 35%.
